One molecule from patent US20180369210A1, “METHODS AND COMPOSITIONS FOR TREATING LYSOSOMAL STORAGE DISORDERS” (Lysosomal Therapeutics Inc., priority 2015, published 2018) can be followed below.

Molecules are shown by their SMILES.

In this test the target is T1, acid ceramidase (Homo sapiens, UniProt Q13510).
T1 sequence (Q13510 22-395): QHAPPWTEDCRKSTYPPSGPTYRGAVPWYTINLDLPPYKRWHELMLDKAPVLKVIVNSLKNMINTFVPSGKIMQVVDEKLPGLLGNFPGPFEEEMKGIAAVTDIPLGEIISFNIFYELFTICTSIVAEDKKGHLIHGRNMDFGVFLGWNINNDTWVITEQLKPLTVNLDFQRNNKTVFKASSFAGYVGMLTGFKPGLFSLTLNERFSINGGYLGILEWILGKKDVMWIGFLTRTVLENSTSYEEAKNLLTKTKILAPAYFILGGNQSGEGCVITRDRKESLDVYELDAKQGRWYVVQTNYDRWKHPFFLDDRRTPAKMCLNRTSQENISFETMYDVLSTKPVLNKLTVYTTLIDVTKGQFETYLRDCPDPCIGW
Put plainly: Acid ceramidase fluorescent intensity assay with fluorogenic substrate Rbm 14-12. The test is classed as biochemical. As to conditions: cell lysates enriched with acid ceramidase; 1 hour preincubation; substrate Rbm 14-12 6.3 μM; pH 4.5; room temperature, 1 or two hours; read-out: average IC50 value for the 1 and 2 hour time points, inhibition of acid ceramidase activity. The method, then:
Inhibition of acid ceramidase activity by compound 25 of Table 2 was evaluated in a fluorescent intensity assay using a fluorogenic substrate Rbm 14-12 […]. Compound 25 was incubated with cell lysates enriched with acid ceramidase for 1 hour in an assay buffer containing 50 mM NaOAc and 100 mM NaCl at pH 4.5. The reaction was initiated by the addition of the substrate at a final concentration of 6.3 μM and the mixture was incubated at room temperature for 1 or two hours. At the appropriate time, the reaction was quenched by the addition of methanol and treated with NaIO4 (fresh 2.5 mg/ml solution was made in 100 mM glycine/NaOH buffer, pH 10.6), followed by incubation for 1 hour at room temperature. Fluorescent intensity was measured using a plate reader at ex 355 nm and em 460 nm.

For `O=C(NCCCCc1ccccc1)n1c(=O)oc2cc(-c3ccc(F)cc3)ccc21` [Compound 25, 6-(4-fluorophenyl)-2-oxo-N-(4-phenylbutyl)-1,3-benzoxazole-3-carboxamide], the IC50 is 250 to 500 nM.

The term IC50 denotes the concentration that gives 50% inhibition.
